Experimental data as given in patent US9084904B2, “Composition for external application” (OTSUKA PHARMACEUTICAL CO., LTD., priority 2008, dated 2015).

Test system: JB6 CL 41-5A Cell Line, mouse epidermis
Assay: Influence of glucose on the intracellular ATP generation-promotion effect of AMP in cultured mouse epidermal cells (ATPlite luminescence)
Assay type: cell-based
Settings: AMP 1 mM, 2 h
From the text: The following reports a test for examining the influence of glucose on the intracellular ATP generation-promotion effect given by AMP. Cultured mouse epidermal cells were used in the test.
Cells: JB6 CL 41-5A Cell Line, mouse epidermis
Culture medium: an MEM medium containing 5% FCS (Fetal Calf Serum)
MEM medium (Nacalai Tesque), Fetal calf serum (GIBCO) AMP: disodium adenosine monophosphate (Yamasa Corporation)
Glucose: D-glucose (Wako Pure Chemical Ind. Ltd.)
ATP measurement: “ATPlite” Luminescence Assay System (Perkin Elmer)
Microplate luminescence reader Anthos Lucy 1 (Aloka Co., Ltd.)
Cultured mouse epidermal cells were inoculated in a 96-well microplate in an amount of 5.8×10^3 cells per well. After two hours, the medium was replaced with another culture medium containing a test sample of a predetermined quantity. After another two hours, the medium was removed, and the amount of ATP was measured.
In the following experiment example, the content of glucose was 100 mg/dL, based on the fact that the normal fasting blood-sugar level of a living body is generally about 70 to 100 mg/dL.
Three concentrations (101, 110, 200 mg/dL) of glucose were added to a normal culture medium (containing 100 mg/dL of glucose) so as to examine how each concentration affects the ATP generation-promotion effect of AMP (1 mM). […] The addition of glucose with a concentration of 110 mg/dL increased ATP generation by 25%, based on the concentration of 100 mg/dL that corresponds to the normal fasting blood-sugar level.
Based on the result of Experiment Example 1, another experiment was performed as follows so as to confirm the influence of the glucose addition on the ATP generation-promotion effect of AMP by ensuring the increase of ATP generation by AMP (1 mM) when the glucose content is 101 mg/dL and 110 mg/dL, and ensuring the decrease of ATP generation by AMP (1 mM) when the glucose content is 200 mg/dL or higher.

[1] = Experiment Example 2, glucose 600 mg/dL

Nc1ncnc2c1ncn2[C@@H]1O[C@H](COP(=O)([O-])[O-])[C@@H](O)[C@H]1O.[Na+].[Na+] [AMP, disodium adenosine monophosphate]
increase of ATP generation (Experiment Example 1, glucose 110 mg/dL, based on 100 mg/dL glucose): 25% | ATP generation (Experiment Example 1, glucose 200 mg/dL): lower than when the glucose content was 110 mg/dL and AMP was 1 mM | ATP generation (Experiment Example 1, glucose content increased from 101 to 110 mg/dL): ATP generation increased | increase of ATP generation (Experiment Example 2, glucose 101 mg/dL): ≥ 30% | increase of ATP generation (Experiment Example 2, glucose 110 mg/dL): ≥ 30% | ATP generation (Experiment Example 2, glucose 200 mg/dL): lower than when the glucose content was 100 mg/dL and AMP was 1 mM | ATP generation compared with AMP-free medium containing 100 mg/dL glucose [1]: not significantly lower | ATP generation-promotion effect of AMP [1]: small
